One compound from patent publication US11572590B2, “Methods for evaluating tumor cell spheroids using 3D microfluidic cell culture device” (Dana-Farber Cancer Institute, Inc., priority 2017, dated 2023) can be followed below.

Like-named read-outs stand apart in the source and are kept apart here.

Test in all cases: SelectScreen Kinase Profiling, single point inhibition and IC50 for off-target kinases
Type in all cases: biochemical

In assay [1] the target is off-target kinases (Homo sapiens, UniProt P07949, M918T). The following applies: RET M918T, mutant y, LanthaScreen Binding.
Sequence of off-target kinases (Homo sapiens, UniProt P07949, M918T) (P07949 29-1114 M918T): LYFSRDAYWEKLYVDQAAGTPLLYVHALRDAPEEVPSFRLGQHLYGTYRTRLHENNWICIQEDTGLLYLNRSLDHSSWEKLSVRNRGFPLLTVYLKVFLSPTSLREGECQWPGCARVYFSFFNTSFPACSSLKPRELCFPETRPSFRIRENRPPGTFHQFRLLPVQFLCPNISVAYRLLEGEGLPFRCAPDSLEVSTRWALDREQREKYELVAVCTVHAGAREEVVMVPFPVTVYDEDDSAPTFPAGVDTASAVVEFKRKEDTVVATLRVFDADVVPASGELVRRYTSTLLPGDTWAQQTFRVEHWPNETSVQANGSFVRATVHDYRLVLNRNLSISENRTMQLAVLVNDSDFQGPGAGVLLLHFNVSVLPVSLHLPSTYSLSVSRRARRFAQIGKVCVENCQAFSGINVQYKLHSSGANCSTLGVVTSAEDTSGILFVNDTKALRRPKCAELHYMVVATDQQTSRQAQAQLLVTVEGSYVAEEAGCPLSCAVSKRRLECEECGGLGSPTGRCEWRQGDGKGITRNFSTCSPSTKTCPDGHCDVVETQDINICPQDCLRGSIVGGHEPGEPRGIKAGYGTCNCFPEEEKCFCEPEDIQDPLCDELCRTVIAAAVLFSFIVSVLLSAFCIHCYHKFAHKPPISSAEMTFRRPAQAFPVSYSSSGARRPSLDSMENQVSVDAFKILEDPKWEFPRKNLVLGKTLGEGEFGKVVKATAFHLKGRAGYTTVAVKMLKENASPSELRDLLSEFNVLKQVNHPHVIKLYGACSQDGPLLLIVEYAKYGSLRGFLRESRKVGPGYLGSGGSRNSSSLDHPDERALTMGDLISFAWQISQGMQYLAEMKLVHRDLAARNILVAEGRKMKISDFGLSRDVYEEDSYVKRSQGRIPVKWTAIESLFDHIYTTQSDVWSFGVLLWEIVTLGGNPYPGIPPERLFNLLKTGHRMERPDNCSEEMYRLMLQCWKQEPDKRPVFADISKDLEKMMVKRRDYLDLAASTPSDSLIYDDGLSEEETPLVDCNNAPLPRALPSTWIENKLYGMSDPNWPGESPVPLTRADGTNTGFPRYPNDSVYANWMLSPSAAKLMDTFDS
Assay [2] has as its target T1, off-target kinases (Homo sapiens, UniProt P42681).
T1 sequence (P42681 1-527): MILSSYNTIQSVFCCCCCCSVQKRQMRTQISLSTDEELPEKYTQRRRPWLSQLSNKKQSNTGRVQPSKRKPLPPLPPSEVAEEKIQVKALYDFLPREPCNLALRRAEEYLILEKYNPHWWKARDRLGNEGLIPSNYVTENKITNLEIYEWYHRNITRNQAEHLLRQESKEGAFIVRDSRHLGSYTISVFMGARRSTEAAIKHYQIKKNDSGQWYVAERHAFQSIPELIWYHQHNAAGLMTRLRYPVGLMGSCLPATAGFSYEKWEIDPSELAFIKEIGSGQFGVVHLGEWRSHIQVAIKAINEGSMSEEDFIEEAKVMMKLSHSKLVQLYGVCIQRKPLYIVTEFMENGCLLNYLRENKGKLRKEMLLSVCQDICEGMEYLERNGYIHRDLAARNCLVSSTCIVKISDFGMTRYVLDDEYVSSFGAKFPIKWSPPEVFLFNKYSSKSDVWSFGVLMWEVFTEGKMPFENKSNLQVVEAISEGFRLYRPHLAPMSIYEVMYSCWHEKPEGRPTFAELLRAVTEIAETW
The following applies: TXK, ZLYTE, ATP Km app.

For assay [3], the target named is T2, off-target kinases (Homo sapiens, UniProt Q8TD19).
T2 sequence (Q8TD19 1-979): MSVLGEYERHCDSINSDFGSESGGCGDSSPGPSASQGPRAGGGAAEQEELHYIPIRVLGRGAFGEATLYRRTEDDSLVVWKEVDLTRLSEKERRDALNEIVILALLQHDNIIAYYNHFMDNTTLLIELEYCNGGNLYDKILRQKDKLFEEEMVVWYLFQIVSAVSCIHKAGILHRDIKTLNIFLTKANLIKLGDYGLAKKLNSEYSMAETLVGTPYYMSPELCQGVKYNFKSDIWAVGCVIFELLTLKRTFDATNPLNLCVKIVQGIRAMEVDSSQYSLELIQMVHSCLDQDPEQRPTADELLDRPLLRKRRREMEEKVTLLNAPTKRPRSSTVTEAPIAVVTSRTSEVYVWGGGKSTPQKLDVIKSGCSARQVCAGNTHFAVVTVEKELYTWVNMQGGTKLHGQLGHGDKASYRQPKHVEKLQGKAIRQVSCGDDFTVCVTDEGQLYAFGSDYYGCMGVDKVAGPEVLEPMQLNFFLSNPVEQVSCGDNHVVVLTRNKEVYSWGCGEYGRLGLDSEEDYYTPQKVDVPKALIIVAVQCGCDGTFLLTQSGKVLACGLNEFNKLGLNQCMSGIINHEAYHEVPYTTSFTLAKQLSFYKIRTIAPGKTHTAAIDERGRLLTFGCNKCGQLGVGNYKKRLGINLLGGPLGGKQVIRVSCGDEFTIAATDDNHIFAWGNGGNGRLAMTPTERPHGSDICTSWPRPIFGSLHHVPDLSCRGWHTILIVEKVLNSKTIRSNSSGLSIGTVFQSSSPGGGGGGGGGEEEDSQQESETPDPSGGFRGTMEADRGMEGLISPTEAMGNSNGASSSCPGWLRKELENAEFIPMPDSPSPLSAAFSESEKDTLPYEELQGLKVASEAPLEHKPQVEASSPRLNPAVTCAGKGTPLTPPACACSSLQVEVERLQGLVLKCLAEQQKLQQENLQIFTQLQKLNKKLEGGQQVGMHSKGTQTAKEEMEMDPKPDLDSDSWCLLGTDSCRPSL
The following applies: NEK9, ATP Km app, ZLYTE.

For `N#Cc1cc(-c2ncnc(Nc3ccc(N4CCN(C5COC5)CC4)cc3)n2)ccc1OC1CCOCC1` [Compound 1, 5-(4-((4-(4-(oxetan-3-yl)piperazin-1-yl)phenyl)amino)-1,3,5-triazin-2-yl)-2-((tetrahydro-2H-pyran-4-yl)oxy)benzonitrile], the inhibition in assay [1] (read-out: % Inhibition 1) came out at 10%; in assay [1] (read-out: % Inhibition 2) it was 13%; in assay [1] (read-out: % Inhibition Avg) it was 12%; in assay [2] (read-out: % Inhibition 1), 27%; in assay [2] (read-out: % Inhibition 2), 36%; in assay [2] (read-out: % Inhibition Avg) it was 31%. Besides, the inhibition was 46% in assay [3] (read-out: % Inhibition 1), 45% in assay [3] (read-out: % Inhibition 2) and 46% in assay [3] (read-out: % Inhibition Avg).

As usually defined, the inhibition is the percentage by which the read-out fell short of the control.
